Reference: US20060240127A1, “Use of agomelatine in obtaining medicaments intended for the treatment of bipolar disorders” (priority 2005, published 2006)

Tested on: patients suffering from bipolar disorders of type I
Test: Clinical study of agomelatine in type I bipolar patients treated with lithium or valproate
Type: in vivo
Description: This study was carried out in 21 patients suffering from bipolar disorders of type I, treated for at least 6 months with lithium (n =14) or valproate (n=7). Treatment for 6 weeks with agomelatine (25 mg/day) was carried out. Of these patients, 19 continued treatment beyond the 6 weeks of acute treatment, and 11 of those continued treatment up to 1 year.

- manic or hypomanic episodes observed after the 6 weeks of treatment (19 patients who continued beyond 6 weeks, 11 of them up to 1 year, level compatible with a mood stabiliser): three
SMILES: COc1ccc2cccc(CCNC(C)=O)c2c1 [agomelatine, N-[2-(7-methoxy-1-naphthyl)ethyl]acetamide]
- patients in remission at the end of the one year treatment period (11 patients who continued treatment up to 1 year, agomelatine 25 mg/day with lithium or valproate): 10 out of the 11
- patients responded positively to the treatment (21 type I bipolar patients on lithium or valproate, agomelatine 25 mg/day, 6 weeks treatment): 81%
- patients responded positively by the end of one week of treatment (21 type I bipolar patients on lithium or valproate, agomelatine 25 mg/day, end of one week): about 50%
